Source: US11173144B2, “Adrenergic receptor modulating compounds and methods of using the same” (The Board of Trustees of the Leland Stanford Junior …, priority 2016, dated 2021)

Columns and labels:
ADRB1 = ADRB1 (Homo sapiens (Human), UniProt P08588); test: cAMP assay (homogenous time-resolved fluorescence) in HEK-293 cells stably expressing human recombinant ADRB1; assay type: cell-based; details: Table 4
Procedure: Pharmacological effects of compounds at the cAMP pathway mediated by ADRB1 are evaluated by measuring cAMP production using the homogenous time-resolved fluorescence detection method with HEK-293 cells stably expressing human recombinant ADRB1. Briefly, cells are suspended in HBSS buffer completed with 20 mM HEPES (pH 7.4) and 500 μM IBMX (3-isobutyl-1-methylxanthine) and distributed at a density of 3×10^3 cells/well. […] The results are expressed as a percent of the maximum efficacy achieved with isoproterenol. Pharmacological effects of compounds at the cAMP pathway mediated by ADRB2 and ADRB3 are measured as described above using CHO cells stably expressing human recombinant ADRB2 and human SK-N-MC neurotumor cells endogenously expressing ADRB3, respectively.
After 30 minute incubation with compounds, the cells are lysed and the fluorescence donor (Europium-chelated-labeled cAMP tracer; Eu-cAMP tracer) and fluorescence acceptor (cAMP-specific monoclonal antibodies labeled with the ULight™ dye) are added. […] The results are expressed as a percent of the control response to 10 μM isoproterenol. For subtype selectivity determination, same procedure is performed using Chinese hamster ovary (CHO) cells stably expressing human β2-adrenergic receptors or SK-N-MC human neuroblastoma cell line expressing β3-adrenergic receptors.
ADRB1 EC50 from functional assay (nM)^a, Determined using the homogenous time-resolved fluorescence detection method with HEK-293 cells stably expressing human recombinant ADRB1. ADRB2 IC50 from binding assay(nM)^b, Determined using the Tag-lite Adrenoceptor Beta2 receptor ligand binding assay.

[1] = Microsomal stability assay, mouse; details: 0.1 uM
[2] = tested on: transient middle cerebral artery occlusion (tMCAO) model of stroke; test: tMCAO model of stroke, infarction volume; assay type: in vivo; details: rat tMCAO, 3 mg/kg, 21 days
Procedure: The tMCAO is performed on animal under isoflurane inhalation anesthesia (4% for induction and 1.5-2.5% for maintenance) in airoxygen mixture ratio 3:1. Ventral neck area is shaved by electric razor and disinfected using betadine followed by 70% ethanol solution. Subsequently, a midline incision is made in the ventral neck area, sharp and blunt dissection techniques are used to isolate left common carotid artery (CCA) and the internal and external carotid arteries (ICA and ECA, respectively). The proximal CCA is ligated below the bifurcation using 3-0 braided silk suture allowing enough room for filament insertion in the area between the ligation and bifurcation. Subsequently, ECA is ligated at its origin dose to the CCA bifurcation, so that the occipital artery stays proximal to the ligature. A microvessel dip is placed on ICA temporarily to avoid excessive bleeding during filament insertion. In order to occlude the origin of middle cerebral artery (MCA), a monofilament with silicon coated tip (0.39 mm diameter, 5-6 mm long) is then inserted into the CCA, the microvessel dip removed following filament advancement into the ICA 20 mm from the bifurcation through small, horizontal incision. The filament is secured in its place by a suture knot placed between the bifurcation and proximal CCA ligature. […]

Sequence of ADRB1 (P08588 whole entry): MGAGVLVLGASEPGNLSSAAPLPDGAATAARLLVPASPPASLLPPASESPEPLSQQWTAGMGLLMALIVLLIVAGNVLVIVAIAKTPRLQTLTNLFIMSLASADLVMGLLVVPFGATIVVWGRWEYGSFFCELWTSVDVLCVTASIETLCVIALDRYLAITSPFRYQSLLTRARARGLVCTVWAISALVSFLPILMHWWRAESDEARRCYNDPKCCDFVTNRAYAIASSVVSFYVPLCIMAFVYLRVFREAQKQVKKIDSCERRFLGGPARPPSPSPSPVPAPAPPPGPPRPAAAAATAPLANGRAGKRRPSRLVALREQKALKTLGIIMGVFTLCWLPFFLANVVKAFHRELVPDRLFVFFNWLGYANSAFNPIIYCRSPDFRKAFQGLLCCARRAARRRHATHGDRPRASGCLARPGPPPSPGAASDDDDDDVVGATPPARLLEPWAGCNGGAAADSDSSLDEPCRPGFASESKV

SMILES	Emax (ADRB1; HEK293, 0.5 h, percent efficacy compared to the maximum response achieved with isoproterenol, read-out: cAMP pathway % Iso max) [%]	EC50 (ADRB1; read-out: cAMP pathway ADRB1 EC50) [µM]	compound remaining after 60 minutes in mouse liver microsomes [1] [%]	infarction volume [2]
COc1ccccc1OCCNC[C@H](O)COc1ccc(O)cc1 [Compound 43]	83.3 ± 15.7	0.01 to 0.1	62.8	–
O=C(NCCNCC(O)COc1ccc(O)cc1)N1CCOCC1 (stereo not shown) [Xamoterol, reference compound]	–	–	–	reduces infarction volume
